The text below walks through data of patent US10654834B2 (Venenum Biodesign, LLC, priority 2016, dated 2020).

The target in series [1] is T1, human TGR5 receptor (Homo sapiens, UniProt Q8TDU6).
T1 construct: host or cells: CHO-K1 (hTGR5-CHO)
T1 sequence (Q8TDU6 1-330): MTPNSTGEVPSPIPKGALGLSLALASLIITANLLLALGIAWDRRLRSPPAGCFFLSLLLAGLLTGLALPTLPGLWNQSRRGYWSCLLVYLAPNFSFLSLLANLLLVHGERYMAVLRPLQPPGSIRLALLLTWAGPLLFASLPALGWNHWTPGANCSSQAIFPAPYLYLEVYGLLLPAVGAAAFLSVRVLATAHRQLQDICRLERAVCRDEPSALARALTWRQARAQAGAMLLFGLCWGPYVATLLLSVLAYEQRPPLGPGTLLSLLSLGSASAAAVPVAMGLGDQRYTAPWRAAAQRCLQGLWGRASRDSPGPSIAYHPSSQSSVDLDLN
Briefly: Human TGR5 cAMP production assay (hTGR5-CHO cells, DiscoveRx cAMP XS+ kit). The series is classed as cell-based. The settings on record: luminescent cAMP assay, read-out: Human TGR5 Lum. cAMP Activity (EC50). Summed up: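 CHO-K1 cells stably expressing hTGR5, in PBS with IBMX and cAMP antibody, treated with half-log compound dilutions for 1 h at room temperature. cAMP measured by enzyme-fragment complementation luminescence after overnight detection; EC50 values reported.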
In general terms: Cyclic AMP is a second messenger, typically raised through Gs and lowered through Gi signalling.

The nature of series [2]: Pharmacokinetic profile in mice after oral gavage. The conditions noted are these: mouse; fasted male Hilltop mice, 10 mg/kg oral gavage, plasma; read-out: Cmax. Format: in vivo, mouse. The procedure, abridged: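 Fasted 8-week male Hilltop mice given 10 mg/kg orally in 20% PEG400/80% 0.5% CMC + 0.25% Tween-80. EDTA plasma sampled 0-4 h, measured by LC-MS/MS (MRM, positive ion); Cmax and AUC derived non-compartmentally, values being means of three mice.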

One may read the EC50 as the concentration needed to bring the measured effect to its halfway point. The Cmax is the peak of the concentration-time curve. Take `N#Cc1ccc(CCNC(=O)[C@@H]2CCCN2c2cc(N3CCC(CO)CC3)nc(C(F)(F)F)n2)cc1` [Compound 1, (S)—N-(4-cyanophenethyl)-1-(6-(4-(hydroxymethyl)piperidin-1-yl)-2-(trifluoromethyl)pyrimidin-4-yl)pyrrolidine-2-carboxamide]: the EC50 in series [1] is below 100 nM. Also, the Cmax in series [2] came to 233 ng/mL.

Take `N#Cc1ccc(CCNC(=O)[C@@H]2CCCN2c2cc(N3CCC(CCCC(=O)NCP(=O)(O)O)CC3)nc(C(F)(F)F)n2)cc1` [Compound 64, (S)-((4-(1-(6-(2-((4-cyanophenethyl)carbamoyl)pyrrolidin-1-yl)-2-(trifluoromethyl)pyrimidin-4-yl)piperidin-4-yl)butanamido)methyl)-phosphonic acid]: the EC50 in series [1] was below 100 nM. Further, the Cmax in series [2] stood at 2.9 ng/mL.

Turning to `N#Cc1ccc(CCNC(=O)[C@@H]2CCCN2c2cc(N3CCC(CCCC(=O)NCS(=O)(=O)O)CC3)nc(C(F)(F)F)n2)cc1` [Compound 66, (S)-(4-(1-(6-(2-((4-cyanophenethyl)carbamoyl)pyrrolidin-1-yl)-2-(trifluoromethyl)pyrimidin-4-yl)piperidin-4-yl)butanamido)-methanesulfonic acid], the EC50 in series [1] is below 100 nM. Further, the Cmax in series [2] worked out at 7.3 ng/mL.

Turning to `N#Cc1ccc(CCNC(=O)[C@@H]2CCCN2c2cc(N3CCC(CCCC(=O)NCC(N)=O)CC3)nc(C(F)(F)F)n2)cc1` [Compound 68, (S)-1-(6-(4-(4-((2-amino-2-oxoethyl)amino)-4-oxobutyl)piperidin-1-yl)-2-(trifluoromethyl)pyrimidin-4-yl)-N-(4-cyanophenethyl)pyrrolidine-2-carboxamide], the EC50 in series [1] is below 100 nM. For the same compound, the maximum concentration (Cmax) in series [2] was 15 ng/mL.

With `N#Cc1ccc(CCNC(=O)[C@@H]2CCCN2c2cc(N3CCC(CCCC(=O)N[C@@H](CCCNC(=N)N)C(=O)O)CC3)nc(C(F)(F)F)n2)cc1` [Compound 72, (S)-2-(4-(1-(6-((S)-2-((4-cyanophenethyl)carbamoyl)pyrrolidin-1-yl)-2-(trifluoromethyl)pyrimidin-4-yl)piperidin-4-yl)butanamido)-5-guanidinopentanoic acid], the EC50 in series [1] is below 100 nM. Moreover, the Cmax in series [2] came out at 1.6 ng/mL.

On to `N#Cc1ccc(CCNC(=O)[C@@H]2CCCN2c2cc(N3CCC(CCCC(=O)N[C@@H](CCC(=O)O)C(=O)O)CC3)nc(C(F)(F)F)n2)cc1` [Compound 76, (S)-2-(4-(1-(6-((S)-2-((4-cyanophenethyl)carbamoyl)pyrrolidin-1-yl)-2-(trifluoromethyl)pyrimidin-4-yl)piperidin-4-yl)butanamido)-pentanedioic acid], for which the EC50 in series [1] is below 100 nM. The Cmax in series [2] was 3 ng/mL.

In the case of `N#Cc1ccc(CCNC(=O)[C@@H]2CCCN2c2cc(N3CCC(CCNC(=O)NCCS(=O)(=O)O)CC3)nc(C(F)(F)F)n2)cc1` [Compound 78, (S)-2-(3-(2-(1-(6-(2-((4-cyanophenethyl)carbamoyl)pyrrolidin-1-yl)-2-(trifluoromethyl)pyrimidin-4-yl)piperidin-4-yl)ethyl)ureido)ethanesulfonic acid], the EC50 in series [1] is below 100 nM. For the same compound, the Cmax in series [2] was 1.3 ng/mL.

With `N#Cc1ccc(CCNC(=O)[C@@H]2CCCN2c2cc(N3CCC(CCNC(=O)NCCS(N)(=O)=O)CC3)nc(C(F)(F)F)n2)cc1` [Compound 80, (S)-N-(4-cyanophenethyl)-1-(6-(4-(2-(3-(2-sulfamoylethyl)ureido)-ethyl)piperidin-1-yl)-2-(trifluoromethyl)pyrimidin-4-yl)pyrrolidine-2-carboxamide], the EC50 in series [1] is below 100 nM. For the same compound, the Cmax in series [2] is 1.2 ng/mL.

Turning to `N#Cc1ccc(CCNC(=O)[C@@H]2CCCN2c2cc(N3CCC(CCNC(=O)NCCC(=O)O)CC3)nc(C(F)(F)F)n2)cc1` [Compound 81, (S)-3-(3-(2-(1-(6-(2-((4-cyanophenethyl)carbamoyl)pyrrolidin-1-yl)-2-(trifluoromethyl)pyrimidin-4-yl)piperidin-4-yl)ethyl)ureido)-propanoic acid], in series [1], the EC50 is below 100 nM. The Cmax in series [2] is 60 ng/mL.

On to `O=C(NCCC1CCN(c2cc(N3CCC[C@H]3C(=O)NCCc3ccc(C(F)(F)F)cc3)nc(C(F)(F)F)n2)CC1)NCCS(=O)(=O)O` [Compound 86, (S)-2-(3-(2-(1-(2-(trifluoromethyl)-6-(2-((4-(trifluoromethyl)phenethyl)-carbamoyl)pyrrolidin-1-yl)pyrimidin-4-yl)piperidin-4-yl)ethyl)ureido)-ethanesulfonic acid], for which, in series [1], the EC50 was below 100 nM. Also, in series [2], the Cmax stood at 13 ng/mL.

As for `N#Cc1ccc(CCNC(=O)[C@@H]2CCCN2c2cc(N3CCC(COCC(=O)O)CC3)nc(C(F)(F)F)n2)cc1` [Compound 88, (S)-2-((1-(6-(2-((4-cyanophenethyl)carbamoyl)pyrrolidin-1-yl)-2-(trifluoromethyl)pyrimidin-4-yl)piperidin-4-yl)methoxy)acetic acid], the EC50 in series [1] was in the range of 100 to 999 nM. Moreover, the Cmax in series [2] came to 630 ng/mL.

As to `CS(=O)(=O)NCCNC(=O)CCCC1CCN(c2cc(N3CCC[C@H]3C(=O)NCCc3ccc(C(F)(F)F)cc3)nc(C(F)(F)F)n2)CC1` [Compound 91, (S)-1-(6-(4-(4-((2-(methylsulfonamido)ethyl)amino)-4-oxobutyl)piperidin-1-yl)-2-(trifluoromethyl)pyrimidin-4-yl)-N-(4-(trifluoromethyl)phenethyl)pyrrolidine-2-carboxamide], the EC50 in series [1] is below 100 nM. For the same compound, the Cmax in series [2] came out at 10 ng/mL.

In the case of `CS(=O)(=O)NCCNC(=O)CCCC1CCN(c2cc(N3CCC[C@H]3C(=O)NCCc3ccc(C#N)cc3)nc(C(F)(F)F)n2)CC1` [Compound 93], the EC50 in series [1] was below 100 nM. Besides, in series [2], the highest concentration (Cmax) is 5 ng/mL.

Take `O=C(CCCC1CCN(c2cc(N3CCC[C@H]3C(=O)NCCc3ccc(C(F)(F)F)cc3)nc(C(F)(F)F)n2)CC1)NCCNc1ncnc2c1ncn2[C@@H]1O[C@H](CO)C(O)C1O` (stereo partly drawn) [Compound 96, (2S)-1-(6-(4-(4-((2-((9-((2R,5R)-3,4-dihydroxy-5-(hydroxymethyl)-tetrahydrofuran-2-yl)-9H-purin-6-yl)amino)ethyl)amino)-4-oxobutyl)piperidin-1-yl)-2-(trifluoromethyl)-pyrimidin-4-yl)-N-(4-(trifluoromethyl)-phenethyl)-pyrrolidine-2-carboxamide]: in series [1], the EC50 is below 100 nM. The Cmax in series [2] came to 1.1 ng/mL.

Regarding `N#Cc1ccc(CCNC(=O)[C@@H]2CCCN2c2cc(N3CCC(CCCC(=O)NCCNc4cc(C(=O)O)ncn4)CC3)nc(C(F)(F)F)n2)cc1` [Compound 101, (S)-6-((2-(4-(1-(6-(2-((4-cyanophenethyl)carbamoyl)pyrrolidin-1-yl)-2-(trifluoromethyl)pyrimidin-4-yl)piperidin-4-yl)butanamido)ethyl)amino)-pyrimidine-4-carboxylic acid], the EC50 in series [1] was below 100 nM. For the same compound, the Cmax in series [2] was found to be 0.7 ng/mL.
